From US12318448B2, “Use of TLR agonist and anti-CD47 agent to enhance phagocytosis of cancer cells” (The Board of Trustees of the Leland Stanford Junior …, priority 2015, dated 2025)

Assays:
SW620 cells [1] = assay: FACS-based phagocytosis assay, mouse BMDMs with SW620 target cells; format: cell-based, human; settings: for phagocytosis of tumor cells after treatment of macrophages with TLR agonist: SW620 (PBS-treated, Hu5F9-G4-treated or CD47KO), γc-/- or NSG mice, FIG. 6A-6B
Experimental: We performed phagocytosis assays by co-culturing mouse bone marrow-derived macrophages (BMDMs) and target human cancer cells to examine the efficacy of PrCR under different conditions. To induce phagocytosis, we blocked CD47 on a human colon cancer cell line (SW620) by either treating tumor cells with CD47 blocking antibodies or directly knocking it out.
(§1) Phagocytosis assay. FACS-based phagocytosis assays were performed to evaluate phagocytic abilities of macrophages. Macrophages were harvested after 6-8 days of differentiation and divided into FACS tubes or low-attachment 96-well plates, with 1-5×10^4 cells per well/tube. Target cells were added and mixed with macrophages, and incubated at 37° C. for 2 hrs with indicated conditions (antibody/drug treatment). For CD47 blockade, anti-CD47 (B6H12, BD Biosciences) or humanized anti-CD47 (Hu5F9-G4; provided by the CD47 disease team at Stanford University) antibodies were used. Cells were then incubated with PE cy7-conjugated anti-mouse F4/80 antibody to stain macrophages. After incubation, cells were washed with FACS buffer and resuspended with FACS buffer containing sytox blue to distinguish dead cells. Phagocytic index was examined by FACS analyses, and macrophages that phagocytosed target cells were F4/80+ and GFP+. Phagocytic index was calculated with the number of F4/80+GFP+ cells/divided by the number of F4/80+ cells. In each experiment, phagocytic indexes were normalized to the maximal indexes.
Alternatively, macrophages and target cells were mixed and cocultured in 24 well plates for 16-24 hrs with indicated conditions. Cells were collected from the plates by TrypLE and incubated with PE cy7-conjugated anti-mouse F4/80 antibody to stain for macrophages. After incubation, cells were washed with FACS buffer and resuspended with FACS buffer containing sytox blue and non-colored standard cells (293T cells were used as standard cells). Cells were then subjected to FACS analyses. Remaining target cells were normalized to standard cells (numbers of standard cells were known and equal in each sample) to evaluate the percentage of cells phagocytosed by macrophages during the incubation.

[2] = test system: HL60, Raji, PC3, MDA-MB-231 cells; assay: Phagocytosis assay, mouse BMDMs with multiple hematopoietic and solid tumor cells; format: cell-based, human; settings: macrophages treated with TLR3, 4 and 7 agonists; FIGS. 6A-C and 7A-D
Text: FIG. 7A-7D. Phagocytosis of HL60, Raji, PC-3, MDA-MB-231 is enhanced by TLR agonists. Phagocytosis assays showing TLR agonists enhanced phagocytosis of multiple human cancer cells, with different hematopoietic (HL60 and Raji) and solid tumor (PC3 and MDA-MB-231) cells (PBS- or Hu5F9-G4-treated) as target cells and BMDMs from NSG (HL60, Raji and PC3) or RAG2^−/−, γc^−/− (MDA-MB-231) mice. HL60: Promyelocytic leukemia; Raji: Burkitt's lymphoma; PC3: Prostate cancer; MDA-MB-231: Breast cancer. Error bars represent standard deviation (FIG. 7A-7D).
as §1

Btk = biological target: T1, Btk (Mus musculus, UniProt P35991); assay: Immunoblot of Btk phosphorylation in macrophages; format: cell-based; settings: treatment with TLR agonist, FIG. 2B
T1 construct: endogenous in cells; probably mouse bone-marrow-derived macrophages
Text: FIG. 2A-2D. […] Error bars represent standard deviation (FIGS. 2A, 2C and 2D).

calreticulin (CRT) [3] = assay: Cell surface exposure of CRT on macrophages (cell surface biotinylation, flow cytometry); format: cell-based, mouse; settings: for cell surface exposure of CRT on macrophages, flow cytometry: TLR agonist treatment, FIG. 3B, 10B; for cell surface CRT on macrophages, cell surface biotinylation assay: immunoblots, FIG. 3A
Experimental: Flow cytometry Analysis. Flow cytometry analyses were performed using a BD LSRFortessa. For staining, 2.5×10^5-10^6 cells were incubated with indicated antibodies (1:50-1:200) in FACS buffer (PBS with 2% fetal bovine serum) on ice for 30 minutes. Cells were then washed with FACS buffer and subjected to FACS analyses. For staining of macrophages, cells were first treated with Fc receptor blockers or a high concentration of isotype IgG control (5-10 times of indicated antibodies) to block non-specific binding of antibodies caused by the interaction of Fc domain and Fc receptors on macrophages.
Cell surface biotinylation. […] Cells were incubated with NHS-SS-Biotin (0.5 mg/ml) for 1 hr in PBS (pH8.0), and then rinsed with quench buffer (20 mM Tris-HCl, 120 mM NaCl, pH7.4), 100 mM Glycine in PBS, and PBS. Cells were lysed in lysis buffer (20 mM Tris-HCl, pH7.4, 150 mM NaCl, 2 mM EDTA, supplemented with 1% Triton X-100, protease inhibitor cocktail and phosphatase inhibitor cocktail). Cell lysate was incubated with neutravidin agarose resin for 4 hr at 4° C., and the resin was washed using lysis buffer. Biotin-labeled proteins were eluted with lysis buffer containing 2% SDS and 100 mM DTT, and subjected to SDS-PAGE and immunoblotting. Intracellular protein GAPDH was used as a negative control to confirm that only cell surface proteins were labeled by NHS-SS-Biotin.

calreticulin (CRT) [4] = assay: CRT phosphorylation in J774 cells expressing myc-CRT (immunoprecipitation, immunoblot); format: cell-based, mouse; settings: myc-tagged CRT, FIG. 10E
Experimental: Immunoprecipitation. Calreticulin was immunoprecipitated from J774 cells expressing myc-CRT. J774 cells were plated 12 hrs before immunoprecipitation. Cells were treated with imiquimod (1 ug/ml) at indicated time points, and washed with pre-chilled PBS containing phosphatase inhibitors on ice. Cells were then lysed in lysis buffer (20 mM Tris-HCl, pH7.4, 150 mM NaCl, 2 mM EDTA, supplemented with 1% Triton X-100, protease inhibitor cocktail and phosphatase inhibitor cocktail). Cell lysate was incubated for 1 hr with GammaBind Plus Sepharose for preclearance and 4 hr with anti-myc antibodies at 4° C. GammaBind sepharose was added to cell lysate and incubated for 1 hr at 4° C. Beads were washed with lysis buffer. Proteins were eluted with lysis buffer containing 2% SDS and 100 mM DTT, and subjected to SDS-PAGE and immunoblotting. To detect phosphorylated CRT, the blot was incubated with biotin-labeled pT66 anti-p-Tyrosine antibody and HRP-conjugated streptavidin.

SW620 cells [5] = assay: Phagocytosis assay, human PBMC-derived macrophages with SW620 target cells; format: cell-based; settings: SW620 Control IgG- or B6H12-treated; FIG. 10D
Experimental: The cells were examined by flow cytometry analyses. Remaining target cells were used to evaluate efficacy of phagocytosis, with less remaining target cells representing stronger phagocytosis. […] Error bars represent standard deviation (FIGS. 10A, 10C and 10D).
Human peripheral blood-derived macrophages were generated as previously described.
Phagocytosis assay. FACS-based phagocytosis assays were performed to evaluate phagocytic abilities of macrophages. […] Target cells were added and mixed with macrophages, and incubated at 37° C. for 2 hrs with indicated conditions (antibody/drug treatment). For CD47 blockade, anti-CD47 (B6H12, BD Biosciences) or humanized anti-CD47 (Hu5F9-G4; provided by the CD47 disease team at Stanford University) antibodies were used. Cells were then incubated with PE cy7-conjugated anti-mouse F4/80 antibody to stain macrophages. After incubation, cells were washed with FACS buffer and resuspended with FACS buffer containing sytox blue to distinguish dead cells. Phagocytic index was examined by FACS analyses, and macrophages that phagocytosed target cells were F4/80+ and GFP+. Phagocytic index was calculated with the number of F4/80+GFP+ cells/divided by the number of F4/80+ cells. In each experiment, phagocytic indexes were normalized to the maximal indexes.

[6] = test system: PC3 prostate cancer cells; assay: Flow cytometry of dissociated PC3 tumor specimens from treated NSG mice; format: in vivo, mouse; settings: PC3 tumors in NSG mice; FIG. 8B
Experimental: Tumor engraftment and treatment. PC3 cells (human prostate cancer) were suspended in F-12K medium with 25% matrix matrigel, and injected subcutaneously on the back of 6-10 week NSG mice. Mice were treated with PBS or Hu5F9-G4 antibody by intraperitoneal injection 2 weeks after engraftment, and PBS or TLR agonists (20 μg of Poly (I:C) HMW and 20 μg of LPS) by intratumoral injection 7 weeks after engraftment when tumors reached 100 mm^3.
Tumor dissociation and FACS analyses. Tumor specimens were collected from the mice, minced to pieces smaller than 1 mm in diameter and dissociated in medium 199 with TM enzymes and DNAase at 37° C. until single-cell suspension was achieved. The cells were treated with ACK lysing buffer for lysis of red blood cells, washed twice with HBSS, filtered through 70 μm cell strainer and subjected to flow cytometry analyses. The cells were stained with anti-CD31 antibody, anti-Gr-1 antibody and sytox blue to exclude endothelial cells, neutrophils and dead cells, and with anti-F4/80 antibody for macrophages.

T1 sequence (P35991 whole entry): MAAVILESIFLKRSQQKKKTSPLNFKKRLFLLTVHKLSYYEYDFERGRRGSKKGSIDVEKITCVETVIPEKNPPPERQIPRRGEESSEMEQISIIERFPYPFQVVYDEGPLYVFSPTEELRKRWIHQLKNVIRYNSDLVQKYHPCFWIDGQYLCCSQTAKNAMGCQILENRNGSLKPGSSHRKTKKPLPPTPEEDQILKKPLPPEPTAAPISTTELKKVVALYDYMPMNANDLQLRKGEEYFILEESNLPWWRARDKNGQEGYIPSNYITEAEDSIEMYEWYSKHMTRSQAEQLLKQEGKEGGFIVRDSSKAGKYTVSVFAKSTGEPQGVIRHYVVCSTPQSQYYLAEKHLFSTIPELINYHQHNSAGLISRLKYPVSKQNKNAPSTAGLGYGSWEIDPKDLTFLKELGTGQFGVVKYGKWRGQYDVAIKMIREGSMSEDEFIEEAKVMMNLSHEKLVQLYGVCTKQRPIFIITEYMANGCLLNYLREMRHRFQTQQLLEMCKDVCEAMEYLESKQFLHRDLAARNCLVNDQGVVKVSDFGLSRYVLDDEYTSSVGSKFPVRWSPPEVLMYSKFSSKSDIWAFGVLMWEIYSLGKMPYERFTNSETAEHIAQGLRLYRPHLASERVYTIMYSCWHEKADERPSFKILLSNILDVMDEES

For “polyinosinic-polycytidylic acid-high molecular weight [Poly (I:C) HMW]”, the “phagocytosis of tumor cells after treatment of macrophages with TLR agonist” value (“phagocytosis of tumor cells” for short) (SW620 cells [1]; BMDMs from RAG2-/-) was “promoted phagocytosis”, the “phagocytosis of multiple hematopoietic and solid tumor cells” value [2] was “dramatically enhanced” and the “Btk phosphorylation in macrophages” value (Btk) was “stimulated Btk to be phosphorylated”. For the same molecule, the “cell surface exposure of CRT on macrophages, flow cytometry” value (“cell surface exposure of CRT” below) (calreticulin (CRT) [3]) was “Increased cell surface exposure”.

In the case of `CC(C)Cn1cnc2c(N)nc3ccccc3c21` [imiquimod, Imiquimod], the “phagocytosis of tumor cells” value (SW620 cells [1]; BMDMs from RAG2-/-) is reported as “promoted phagocytosis”, the “duration of Btk-activation for maximal phagocytic ability of macrophages” value (SW620 cells [1]; SW620 CD47KO target cells, BMDMs from NSG mice, FIG. 2C) is reported as 16 h and the “phagocytosis of multiple hematopoietic and solid tumor cells” value [2] is reported as “dramatically enhanced”. The “Btk phosphorylation in macrophages” value (Btk) was “stimulated Btk to be phosphorylated”, the “cell surface exposure of CRT” value (calreticulin (CRT) [3]) was “Increased cell surface exposure” and the “cell surface exposure of CRT” value (calreticulin (CRT) [3]; listed as Imiquimod) was “increased cell surface expression”. The “cell surface CRT on macrophages, cell surface biotinylation assay” value (calreticulin (CRT) [3]) was “increased” and the “time of treatment to maximal level of CRT phosphorylation” value (calreticulin (CRT) [4]) was 30 min.

For `C=CC(=O)N1CCC[C@@H](n2nc(-c3ccc(Oc4ccccc4)cc3)c3c(N)ncnc32)C1` [ibrutinib, 1-[(3R)-3-[4-amino-3-(4-phenoxyphenyl)pyrazolo[3,4-d]pyrimidin-1-yl]piperidin-1-yl]prop-2-en-1-one], the “basal level phagocytosis of cancer cells (resting macrophages)” value (SW620 cells [1]; Fc-dependent and -independent, 16 hr coculture, BMDMs from RAG2-/-, γc-/- mice, FIG. 10A) was “inhibitory effect”, the “phagocytosis induced by TLR agonists, combined with inhibitor” value (SW620 cells [1]; SW620 (control or CD47KO), BMDMs from RAG2-/-, γc-/- mice, FIG. 2A) was “significantly attenuated” and the “time to maximal inhibition of phagocytosis on blockade of Btk” value (SW620 cells [1]; SW620 CD47KO target cells, BMDMs from NSG mice, FIG. 2D) was at most 1 h. For the same molecule, the “phagocytosis of SW620 cells by human PBMC-derived macrophages” value (SW620 cells [5]) was “inhibited phagocytosis”, the “imiquimod-induced cell surface expression of CRT on macrophages with ibrutinib” value (calreticulin (CRT) [3]; imiquimod+ibrutinib, flow cytometry, FIG. 10B) was “reversed” and the “cell surface CRT on macrophages, cell surface biotinylation assay” value (calreticulin (CRT) [3]) was “decreased”.

lipopolysaccharide [LPS] was tested, and the “phagocytic ability of macrophages” value (SW620 cells [1]; SW620 (PBS- or Hu5F9-G4-treated), BMDMs from NSG mice, flow cytometry plots, FIG. 6C) was “strongly enhanced”, the “phagocytosis of tumor cells” value (SW620 cells [1]; BMDMs from RAG2-/-) was “promoted phagocytosis” and the “phagocytosis of multiple hematopoietic and solid tumor cells” value [2] was “dramatically enhanced”. The “Btk phosphorylation in macrophages” value (Btk) was “stimulated Btk to be phosphorylated” and the “cell surface exposure of CRT” value (calreticulin (CRT) [3]) was “Increased cell surface exposure”.

B1: B6H12: anti-CD47 antibody (B6H12, BD Biosciences) (antibody, V domains shown)
VH: EVQLVESGGDLVKPGGSLKLSCAASGFTFSGYGMSWVRQTPDKRLEWVATITSGGTYTYYPDSVKGRFTISRDNAKNTLYLQIDSLKSEDTAIYFCARSLAGNAMDYWGQGTSVTVSS
VL: DIVMTQSPATLSVTPGDRVSLSCRASQTISDYLHWYQQKSHESPRLLIKFASQSISGIPSRFSGSGSGSDFTLSINSVEPEDVGVYYCQNGHGFPRTFGGGTKLEIK
B1 was tested, and the “phagocytosis of SW620 cells on blockade of CD47” value (SW620 cells [1]; BMDMs from RAG2-/-, γc-/- mice, FIG. 1A) was “induced phagocytosis”.

B2: Hu5F9-G4: humanized anti-CD47 antibody provided by the CD47 disease team at Stanford University (antibody, chains of the INN, looked up, V domains shown)
VH: QVQLVQSGAEVKKPGASVKVSCKASGYTFTNYNMHWVRQAPGQRLEWMGTIYPGNDDTSYNQKFKDRVTITADTSASTAYMELSSLRSEDTAVYYCARGGYRAMDYWGQGTLVTVSS
VL: DIVMTQSPLSLPVTPGEPASISCRSSQSIVYSNGNTYLGWYLQKPGQSPQLLIYKVSNRFSGVPDRFSGSGSGTDFTLKISRVEAEDVGVYYCFQGSHVPYTFGQGTKLEIK
B2 was tested, and the “macrophages (a1+a2) in tumor specimens” value [6] was 46.26%, the “macrophages that had phagocytosed tumor cells a2 (GFP+F4/80+), ongoing phagocytosis” value [6] was 39.3% and the “tumor cells a4 (GFP+F4/80-) in tumor specimens” value [6] was 40%.
